How the values were obtained:
NIH3T3 cells = experiment: Toxicity test on NIH3T3 cells by MTT assay; type: cell-based; conditions: 72 hours
Protocol: (§1) The steps of the MTT assay were carried out using methods well known to those skilled in the art, and all the reagents used in the methods are commercially available.
(§2) After the first wash, another 1.5 mL of trypsin/EDTA was added to digest the adherent cells until the cells detached. Then 3.5 mL of the culture medium was added to terminate the digestion. The digested cell suspension was transferred to a 15 mL centrifuge tube and centrifuged at 1300 rpm for 3 minutes. The supernatant was discarded and the cells were resuspended in fresh medium. The cells were then counted and diluted to the following concentrations: 27,800 cells per milliliter of H1975 cells, 33,300 cells per milliliter of A431 cells and NIH3T3 cells (purchased from the Cell Bank of the Type Culture Collection Committee, Chinese Academy of Sciences).
(§3) After the drug was added, the cells were incubated in an incubator for 72 hours. 10 μL of 5 mg/ml MTT (Sigma, M5655) solution was added to each well. The 96-well plate was then incubated in a 37° C. and 5% CO2 incubator for 4 h.
(§4) The plate was then centrifuged at 2000 rpm for 5 min. After the supernatant was removed, 150 μl of DMSO was added to each well and the plate was shaken in a shaker until all crystal violet was dissolved.

wild-type EGFR kinase = wild-type EGFR kinase (Homo sapiens (Human), UniProt P00533); conditions: read-out: EGFR WT (IC50/μM); z'-lyte assay, 10 μM ATP
Protocol: All reagents used in the following z′-lyte assay were purchased from Invitrogen.
The working concentrations of each component in 10 μL wild-type EGFR kinase reaction system were: 10 μM ATP, 0.8 ng/μL wild-type EGFR kinase, 2 μM Tyr04 substrate (Invitrogen, PV3193). The concentration of DMSO after addition of the compound to be tested was 2 vol %.
10 mM drug stock solution was dissolved at room temperature and gradiently diluted to a final concentration of 4-0.002 μM with 8 vol % DMSO solution. […] Then 2.5 μl of ATP was added to initiate the reaction. Wherein, ATP was replaced by the reaction buffer in well C1, no drug was added to well C2, and the phosphorylated substrate was added to well C3 according to the instructions. The mixture was allowed to react at 25° C. in a shaker in dark for 60 min. 5 μL of Development Reagent B (Invitrogen, diluted with TR-FRET dilution buffer) was added and allowed to react at room temperature in the shaker for 60 minutes.
The inhibition rate was calculated according to the following method (refer to the instructions of Invitrogen, PV3193):
1. ER=Coumarin Emission (450 nm)/Fluorescein Emission (520 nm)
The half-inhibitory concentration IC50 was obtained through fitting calculation by using XLFIT 5.0 software (IDBS, UK).

A431 cells = experiment: Cell growth inhibition by MTT assay, A431 cells; type: cell-based; conditions: 72 hours
Protocol: as §1, §2, §3, §4

H1975 cells = experiment: Cell growth inhibition by MTT assay, H1975 cells; type: cell-based; conditions: for IC50: MTT assay, 72 hours; for Selective inhibitory activity against cell growth [IC50 (A431 cell)/IC50 (H1975 cell)]: ratio of MTT IC50 values;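 as to all read-outs here: MTT read-out in 96-well plates after 72 h compound exposure of H1975 and A431 cells, with selectivity given as the A431 IC50 divided by the H1975 IC50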
Protocol: as §1, §2, §3, §4

[1] = molecular target: EGFR phosphorylation in H1975 (EGFR T790M mutant) cells (Homo sapiens (Human), UniProt P00533, L858R/T790M); experiment: Inhibition of EGFR phosphorylation in H1975 cells (ELISA); type: cell-based; conditions: for IC50: ELISA of EGFR phosphorylation, 1 h compound treatment, read-out: H1975 cell (IC50/μM); for Selective inhibitory activity against targets at the cell level [IC50 (A431 cell)/IC50 (H1975 cell)]: ratio of ELISA IC50 values;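 as to all read-outs here: Phospho-EGFR in cell lysates measured by capture-antibody ELISA with TMB substrate after compound exposure, cells given DMSO alone (0.5% final) serving as control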
EGFR phosphorylation in H1975 (EGFR T790M mutant) cells, sequence (P00533 25-1210 T790M/L858R): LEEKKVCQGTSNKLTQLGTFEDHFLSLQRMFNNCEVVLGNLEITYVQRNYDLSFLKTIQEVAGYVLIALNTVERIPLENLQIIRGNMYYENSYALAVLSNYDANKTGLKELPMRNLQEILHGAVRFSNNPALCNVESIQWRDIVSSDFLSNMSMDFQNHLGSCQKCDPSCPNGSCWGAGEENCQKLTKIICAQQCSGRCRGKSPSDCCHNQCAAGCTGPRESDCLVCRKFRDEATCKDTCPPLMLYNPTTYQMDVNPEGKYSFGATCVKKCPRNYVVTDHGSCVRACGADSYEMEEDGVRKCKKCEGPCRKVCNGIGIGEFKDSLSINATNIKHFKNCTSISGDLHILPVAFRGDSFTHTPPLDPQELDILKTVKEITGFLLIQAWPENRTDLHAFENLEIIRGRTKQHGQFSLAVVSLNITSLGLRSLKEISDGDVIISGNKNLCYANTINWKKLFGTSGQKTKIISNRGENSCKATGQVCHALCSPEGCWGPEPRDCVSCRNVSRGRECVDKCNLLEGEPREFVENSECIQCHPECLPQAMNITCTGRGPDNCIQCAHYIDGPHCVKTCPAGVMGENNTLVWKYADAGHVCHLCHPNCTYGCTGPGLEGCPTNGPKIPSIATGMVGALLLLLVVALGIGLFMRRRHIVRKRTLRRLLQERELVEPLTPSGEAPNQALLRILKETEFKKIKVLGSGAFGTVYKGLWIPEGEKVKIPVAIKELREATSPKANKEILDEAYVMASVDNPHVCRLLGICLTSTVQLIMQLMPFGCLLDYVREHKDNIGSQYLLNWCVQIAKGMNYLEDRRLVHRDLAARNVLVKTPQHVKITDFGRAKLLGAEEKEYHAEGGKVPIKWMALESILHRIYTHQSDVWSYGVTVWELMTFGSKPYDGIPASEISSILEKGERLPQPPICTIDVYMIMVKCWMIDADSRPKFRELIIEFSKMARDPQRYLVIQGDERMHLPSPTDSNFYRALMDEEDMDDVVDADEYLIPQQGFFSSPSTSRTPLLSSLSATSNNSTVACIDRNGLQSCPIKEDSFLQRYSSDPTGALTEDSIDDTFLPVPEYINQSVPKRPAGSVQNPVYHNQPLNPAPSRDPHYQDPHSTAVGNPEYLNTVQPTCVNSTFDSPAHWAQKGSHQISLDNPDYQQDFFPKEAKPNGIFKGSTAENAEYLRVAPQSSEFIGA
Protocol: (§5) In the following methods, the reagents used, the preparation methods of solutions, the cell treatment and the preparation steps of the lysis solution, as well as the ELISA assay steps, were carried out according to the instructions of R&D DYC3570, R&D DYC1095E and R&D DYC1095BE.
(§6) Cell lysis solution: Cell lysis buffer+10 μg/mL Aprotinin (Sigma)+10 μg/mL Leupeptin (Sigma), prepared on site.
(§7) Wash buffer: PBS buffer containing 0.05% (v/v) Tween-20.
(§8) Blocking solution: PBS buffer containing 1% (w/v) BSA.
(1) H1975 cells (purchased from the Cell Bank of the Type Culture Collection Committee, Chinese Academy of Sciences) were seeded into 96-well plates at a density of 1×10^4/well, each cell containing 90 μl of RPMI1640 medium with 10% (V/V) FBS, and cultured overnight at 37° C. in 5% (v/v) CO2.
(2) The compounds to be tested were diluted in accordance with the drug dilution method in the MTT assay. 10 μL of the diluted compound or diluted DMSO was added to the corresponding wells of the cell culture plate, and the final concentration of DMSO was 0.5% (V/V). The plate was cultured at 37° C. in 5% (v/v) CO2 for 1 h. The cell culture system treated with DMSO alone was used as cell control.
(3) The medium was removed and then 100 μL of cell lysis solution was added. The plate was sealed and placed in a refrigerator at −80° C. overnight. The cell lysis buffer was used as blank control.
The assay was conducted according to the instructions given in R&D DYC1095E or R&D DYC1095BE.
(1) R&D capture antibody ((DYC1095BE or DYC1095E)) was diluted with PBS in the proportion of 1:180.
(§9) (2) The plate was washed 3 times with 360 μL of the wash buffer.
(3) 300 μL of the blocking solution was added and the plate was incubated at 25° C. with shaking for 2 hours.
(4) The plate was washed 3 times with 360 μL of the wash buffer.
(§10) (5) 40 μL of cell lysis buffer and 60 μL of cell lysis solution were added and the plate was incubated at 25° C. with shaking for 2 hours.
(§11) (6) The plate was washed 3 times with 360 μL of the wash buffer.
(§12) (7) The detection antibody was diluted with the detection antibody diluent in the proportion specified in the instructions of the kit. 100 μL of the diluted antibody was added to each well and the plate was incubated at 25° C. with shaking in dark for 1 h.
(8) The plate was washed 3 times with 360 μL of wash buffer.
(9) A reagent and B reagent in the TMB substrate (R&D DY999) were mixed in 1:1. 100 μL of the mixture was added to each well and incubated in dark at 25° C. with shaking for 20 min.
(§13) (10) 50 μL of 2N H2SO4 was added to each well.
(11) The plate was read with a microplate reader (Thermo Multiskan K3). OD 450 values and OD570 values of the cell control, blank control, and drug treatment wells were measured. ODcell, ODblank and ODdrug treatment were obtained by subtracting the corresponding OD570 value from the OD 450 value of the same well.
2.3 Data Analysis Inhibition rate (%)=100%×(ODcell−ODdrug treatment)/(ODcell−ODblank)

[2] = molecular target: EGFR phosphorylation in A431 (EGFR wild-type) cells (Homo sapiens (Human), UniProt P00533); experiment: Inhibition of EGFR phosphorylation in A431 cells (ELISA); type: cell-based; conditions: 1 h compound treatment, EGF stimulation, read-out: A431 cell (IC50/μM)
EGFR phosphorylation in A431 (EGFR wild-type) cells, sequence (P00533 25-1210): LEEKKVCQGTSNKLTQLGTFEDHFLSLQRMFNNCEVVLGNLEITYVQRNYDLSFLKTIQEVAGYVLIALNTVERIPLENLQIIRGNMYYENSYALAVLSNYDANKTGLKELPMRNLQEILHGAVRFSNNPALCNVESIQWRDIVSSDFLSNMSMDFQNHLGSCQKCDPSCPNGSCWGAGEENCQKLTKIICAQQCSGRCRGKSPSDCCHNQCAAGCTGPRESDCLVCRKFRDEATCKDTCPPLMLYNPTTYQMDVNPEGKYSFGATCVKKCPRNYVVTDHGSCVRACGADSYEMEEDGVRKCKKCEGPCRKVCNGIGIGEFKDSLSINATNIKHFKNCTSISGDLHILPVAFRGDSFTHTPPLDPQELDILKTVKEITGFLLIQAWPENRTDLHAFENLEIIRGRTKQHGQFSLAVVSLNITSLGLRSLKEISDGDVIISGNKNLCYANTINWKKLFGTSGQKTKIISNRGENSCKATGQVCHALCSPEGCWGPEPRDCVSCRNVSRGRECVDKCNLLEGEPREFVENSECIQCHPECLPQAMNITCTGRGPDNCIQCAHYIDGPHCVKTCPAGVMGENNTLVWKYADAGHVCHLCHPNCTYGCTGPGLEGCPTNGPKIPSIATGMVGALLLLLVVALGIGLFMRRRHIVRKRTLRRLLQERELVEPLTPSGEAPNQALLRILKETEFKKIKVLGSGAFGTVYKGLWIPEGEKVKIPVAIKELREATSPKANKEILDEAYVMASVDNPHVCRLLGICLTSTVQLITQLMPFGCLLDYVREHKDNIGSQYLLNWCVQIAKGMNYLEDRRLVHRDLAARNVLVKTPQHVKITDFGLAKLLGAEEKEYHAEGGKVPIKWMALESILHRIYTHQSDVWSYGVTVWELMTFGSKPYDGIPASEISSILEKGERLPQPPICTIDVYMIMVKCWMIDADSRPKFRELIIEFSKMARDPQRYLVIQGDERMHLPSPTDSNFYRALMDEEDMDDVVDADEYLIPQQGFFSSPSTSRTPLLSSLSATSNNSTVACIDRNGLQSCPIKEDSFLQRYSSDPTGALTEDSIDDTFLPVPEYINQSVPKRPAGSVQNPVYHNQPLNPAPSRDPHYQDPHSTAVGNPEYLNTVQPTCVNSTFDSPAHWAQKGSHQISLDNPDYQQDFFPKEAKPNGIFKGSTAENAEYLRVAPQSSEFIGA
Protocol: as §5
I. Reagents and Solutions
as §6, §7, §8
3.1 A431 Cell Treatment and Testing Procedures
(1) A431 cells (purchased from the Cell Bank of the Type Culture Collection Committee, Chinese Academy of Sciences) were seeded in 96-well plates at a density of 1×10^4/well in 90 μl of DMEM medium containing 10% FBS and cultured at 37° C. in 5% CO2 overnight.
(2) The A431 cell culture medium was replaced with 90 μl of serum-free DMEM medium and the plate was cultured overnight.
(3) The compound to be tested was diluted according to the drug dilution method in MTT assay. 10 μL of the diluted compound or diluted DMSO was added to the corresponding wells of the cell culture plate, and the final concentration of DMSO was 0.5%. The plate was cultured at 37° C. in 5% CO2 for 1 hour. […] The cells without EGF and drug treatment were used as cell control, and the cells treated with EGF without drugs were used as EGF control.
(4) The medium was removed and then 100 μL of the cell lysis solution was added. The plate was sealed and placed in a refrigerator at −80° C. overnight.
The assay was conducted according to the instructions given in R&D DYC3570E.
(1) R&D capture antibody (DYC3570E) was diluted with PBS in the proportion of 1:180.
as §9
(3) 200 μL of the blocking solution was added and the plate was incubated at 25° C. with shaking for 2 hours.
(4) The plate was washed 3 times with 360 μL of wash buffer.
as §10, §11, §12
(8) The plate was washed 3 times with 360 μL of the wash buffer.
(9) A reagent and B reagent in TMB substrate (R&D DY999) were mixed in 1:1. 100 μL of the mixture was added to each well and incubated in dark at 25° C. with shaking for 20 min.
as §13
(11) The plate was read with a microplate reader (Thermo Multiskan K3). OD 450 values and OD570 values of the cell control, blank control, and drug treatment wells were measured. ODEGF, ODdrug and ODcell were obtained by subtracting the corresponding OD570 value from the OD 450 value of the same well.
3.3 Data Analysis Inhibition rate (%)=100%×(ODEGF−ODdrug)/(ODEGF−ODcell)

[3] = molecular target: T790M/L858R double mutant EGFR kinase (Homo sapiens (Human), UniProt P00533, L858R/T790M); experiment: z'-lyte assay of inhibitory activity on T790M/L858R double mutant EGFR kinase; type: biochemical; conditions: for Selective inhibitory activity against enzymes [IC50 (EGFR WT)/IC50 (T790M/L858R)]: ratio of enzyme IC50 values; for IC50: z'-lyte assay, 25 μM ATP
T790M/L858R double mutant EGFR kinase, sequence (P00533 25-1210 T790M/L858R): as the sequence (P00533 25-1210 T790M/L858R) above

wild-type EGFR kinase, sequence (P00533 25-1210): as the sequence (P00533 25-1210) above

| Compound | IC50 (NIH3T3 cells) [µM] | IC50 (wild-type EGFR kinase) [µM] | IC50 (A431 cells) [µM] | IC50 (H1975 cells) [µM] | Selective inhibitory activity against cell growth [IC50 (A431 cell)/IC50 (H1975 cell)] (H1975 cells) | IC50 [1] [µM] | Selective inhibitory activity against targets at the cell level [IC50 (A431 cell)/IC50 (H1975 cell)] [1] | IC50 [2] [µM] | Selective inhibitory activity against enzymes [IC50 (EGFR WT)/IC50 (T790M/L858R)] [3] | IC50 [3] [µM] |
| --- | --- | --- | --- | --- | --- | --- | --- | --- | --- | --- |
| C=CC(=O)Nc1cc(Nc2ncc3ccc(-c4cnn(C)c4)n3n2)c(OC)cc1OCCN(C)C [Compound J-3, N-(2-(2-(dimethylamino)ethoxyl)-4-methoxy-5-(7-(1-methyl-1H-pyrazol-4-yl)pyrrolo[1,2-f][1,2,4]triazin-2-ylamino)phenyl)acrylamide] | 3.91 | 0.01 | 0.168 | 0.008 | 21 | 0.001 | 93 | 0.093 | 10 | 0.001 |
| C=CC(=O)Nc1cc(Nc2ncc3ccc(-c4cnn(C)c4)n3n2)c(OC)cc1N1CCN(C)CC1 [Compound J-4, N-(4-methoxy-5-(7-(1-methyl-1H-pyrazol-4-yl)pyrrolo[1,2-f][1,2,4]triazin-2-ylamino)-2-(4-methyl-1-yl)phenyl)acrylamide] | 3.65 | 0.035 | 0.461 | 0.014 | 32.9 | 0.004 | 450 | 1.8 | 17.5 | 0.002 |
| C=CC(=O)Nc1cc(Nc2ncc3ccc(C4=CCCCC4)n3n2)c(OC)cc1N(C)CCN(C)C [Compound J-5, N-(5(7-cyclohexenyl-pyrrolo[1,2-f][1,2,4]triazin-2-ylamino)-2-((2-(dimethylamino)ethyl)(methyl)amino)-4-methoxyphenyl)acrylamide] | 2.82 | 0.009 | 0.354 | 0.023 | 15.4 | 0.106 | 2 | 0.208 | 3 | 0.003 |
| C=CC(=O)Nc1cc(Nc2ncc3ccc(-c4cccnc4)n3n2)c(OC)cc1N(C)CCN(C)C [Compound J-6, N-(2-((2-(dimethylamino)ethyl)(methyl)amino)-4-methoxy-5-(7-(pyridin-3-yl)pyrrolo[1,2-f][1,2,4]triazin-2-ylamino)phenyl)acrylamide] | 8.21 | 0.013 | 0.427 | 0.028 | 15.3 | 0.027 | 11.4 | 0.309 | 5.42 | 0.0024 |
| C=CC(=O)Nc1cc(Nc2ncc3ccc(C)n3n2)c(OC)cc1N(C)CCN(C)C [Compound J-9, N-(2-((2-(dimethylamino)ethyl)(methyl)amino)-4-methoxy-5-(7-methylpyrrolo[1,2-f][1,2,4]triazin-2-ylamino)phenyl)acrylamide] | > 10 | 0.105 | 1.65 | 0.125 | 13.2 | 0.186 | 5 | 0.92 | 6.6 | 0.016 |
| C=CC(=O)Nc1cc(Nc2ncc3ccc(-c4ccccc4)n3n2)c(OC)cc1N(C)CCN(C)C [Compound J-11, N-(2-((2-(dimethylamino)ethyl)(methyl)amino)-4-methoxy-5-(7-phenylpyrrolo[1,2-f][1,2,4]triazin-2-ylamino)phenyl)acrylamide] | 5.57 | 0.01 | 0.621 | 0.026 | 23.9 | 0.063 | 3.8 | 0.237 | 4.2 | 0.0024 |
